The data set can be described thus: solubility experiment in water at room temperature. Type of data set: physicochemical. On the procedure: A solubility experiment was carried out in which commercially available naringin was dissolved in water at room temperature. The naringin was dissolved in an amount of 0.1 g/l corresponding to around 0.01 weight-%. A pulverous test sample of a composition obtained from Citrus Aurantium by the method according to the invention and comprising about 20 weight-% naringin was also dissolved in water at room temperature. The composition was dissolved in an amount of […], corresponding to a […] solution of naringin weight-%. Accordingly the solubility of naringin is 300 times higher in water when obtained by the method according to the invention and being in the composition obtained from Citrus Aurantium by said method, than commercially available naringin.

Turning to `C[C@@H]1O[C@@H](O[C@H]2[C@H](Oc3cc(O)c4c(c3)O[C@H](c3ccc(O)cc3)CC4=O)O[C@H](CO)[C@@H](O)[C@@H]2O)[C@H](O)[C@H](O)[C@H]1O` [naringin, naringenin-7β-neohesperidoside; 5,7,4′-trihydroxyflavanone-7β-neohesperidoside], the “amount dissolved in water” value is 0.1 g/L. Besides, the “amount dissolved in water, as weight-%” value (commercially available naringin) is “around 0.01 weight-%”.

For the origin of these results see patent US6409996B1, “Composition comprising one or more flavonoids, method of obtaining such composition and use thereof as UV-absorbing agent” (Flavone Sunproducts A/S, priority 1997, dated 2002).
